For assay [1], the system named is TGF-β-stimulated SMAD3 phosphorylation in BEAS-2B cells. Description: Cellular ALK5 potency assay, inhibition of TGF-β stimulated pSMAD3 formation in BEAS-2B cells. The assay is classed as cell-based. Conditions: Homo sapiens; inhibition of TGF-β stimulated pSMAD3 formation, BEAS-2B cells; read-out: BEAS2B pIC50 (converted). As for the experimental part:
The potency of compounds of the present disclosure for inhibition of TGF-β-stimulated SMAD3 phosphorylation was measured in BEAS-2B cells, a human lung epithelial cell line. TGF-β signals through activin receptor-like kinase 5 (ALK5) immediately prior to SMAD3 phosphorylation.
BEAS-2B cells were grown using 50% DMEM (Life Technologies) and 50% F-12 (Life Technologies) media, supplemented with 10% Fetal Bovine Serum (ATCC), 25 mM HEPES (Life Technologies), and 1× Pen-Strep (Life Technologies). Cells were cultured in a humidified incubator set at 37° C., 5% CO2, and trypsonized using 0.25% Trypsin with 0.5% polyvinylpyrrolidone (PVP).
For the assay, BEAS-2B cells were seeded at 7,500 cells/well (25 μL/well) in a 384-well plate and cultured overnight. Before dosing, growth media was aspirated and the wells were rinsed with HBSS Buffer (HBSS with Calcium and Magnesium, Life Technologies) supplemented with 25 mM HEPES (Life Technologies) and 1% Bovine Serum Albumin (Roche). Compounds were serially diluted in DMSO, then further diluted with supplemented HBSS Buffer (50 μL/well) to create a compound plate 3× of the final assay concentration, at 0.3% DMSO. The diluted compounds were then added to the cells (8 μL/well) and incubated at 37° C., 5% CO2 for 1 hour. After the compound incubation, TGF-β (R&D Systems) reconstituted in supplemented HBSS Buffer was added to the cells ([…], final concentration 10 ng/mL) and incubated for a further 30 minutes, after which the cells were immediately lysed with AlphaLISA lysis buffer (PerkinElmer). AlphaLISA Acceptor and Detector beads (PerkinElmer) were added 2 hours apart, then incubated overnight to be read the next day. The potency of the compound was determined through analysis of dose-dependent quantified changes in pSMAD3 signal from baseline (non-compound treated TGF-β stimulated cells). Data are expressed as pIC50 (negative decadic logarithm IC50) values.

Assay [2] has as its target T1, recombinant human ALK5 (TGF-βR1) protein (Homo sapiens, UniProt P36897).
T1 construct: purchased Life Technologies PR9075A
T1 sequence (P36897 34-503): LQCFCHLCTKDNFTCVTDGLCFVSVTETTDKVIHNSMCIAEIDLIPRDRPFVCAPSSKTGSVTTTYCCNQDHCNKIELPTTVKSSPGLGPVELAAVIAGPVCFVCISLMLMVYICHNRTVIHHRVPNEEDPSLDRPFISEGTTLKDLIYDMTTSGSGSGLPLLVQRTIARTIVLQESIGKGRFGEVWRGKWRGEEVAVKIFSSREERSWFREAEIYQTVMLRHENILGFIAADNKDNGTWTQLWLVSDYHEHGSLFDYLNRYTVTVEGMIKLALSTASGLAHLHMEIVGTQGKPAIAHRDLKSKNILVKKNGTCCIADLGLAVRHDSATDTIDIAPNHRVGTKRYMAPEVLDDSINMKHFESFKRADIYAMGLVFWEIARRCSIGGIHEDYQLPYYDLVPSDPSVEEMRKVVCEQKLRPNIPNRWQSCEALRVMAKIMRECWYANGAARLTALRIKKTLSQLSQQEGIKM
Kind of assay: Biochemical ALK5 (TGF-βR1) assay to measure pKi (LANCE Ultra ULight kinase assay). Conditions: apparent pKi from pIC50 by Cheng-Prusoff, read-out: ALK5 pKi (converted). The protocol: The assays were performed in a 384-well plate (24 columns×16 wells/rows). An Echo® 550 Liquid Handler (Labcyte) was used to prepare various intermediate concentrations of compounds of the present disclosure in 100% DMSO. From the intermediate concentrations, a range of concentrations (from 10 μM to 25 pM corresponding to volumes up to 105 nL) were prepared and ejected into a final assay plate to be used to create individual dose response curves for each of the subject compounds. To a separate column within the assay plate, 105 nL of DMSO in each well was used to establish a maximum assay signal.
With a multidrop dispenser, 8 μL of enzyme mixture (1.25× final) was added to each well. […] The plate was then sealed with an adhesive seal and allowed to equilibrate for 60 minutes at room temperature.
Next, 2 μL of 125 μM ATP (5× final, 125 μM ATP prepared in assay buffer with 2 mM DTT) was added to the incubated mixtures, covered with a MicroClime® Environmental Lid (Product No. LLS-0310, Labcyte) and immediately transferred to 37° C. The reactions were allowed to proceed at 37° C. for 60 minutes before terminating with the addition of 10 μL of detection antibody (LANCE® (lanthanide chelate excite) Ultra Europium-anti-phospo-DNA Topoisomerase 2-alpha (Thr1342)) in detection mixture (12 mM EDTA, 4 nM detection antibody prepared in detection buffer (50 mM Tris-HCl, 150 mM NaCl, 0.5% BSA (Fraction V), pH 7.0)) at room temperature. The plate was then read on a Perkin Elmer EnVision Plate Reader using europium specific reader settings with excitation and emission wavelengths set to 320 or 340 nm and 665 nm, respectively.
For dose-response analyses, percent inhibition versus compound concentrations were plotted, and pIC50 values were determined from a 4-parameter robust fit model with GraphPad Prism V5 Software (GraphPad Software, Inc., La Jolla, Calif.). This model obtains pIC50 values by fitting the sigmoidal dose-response (variable slope) equation to the data. Results were expressed as pIC50 (negative logarithm of IC50) and subsequently converted to pKi (negative logarithm of dissociate constant, K) using the Cheng-Prusoff equation. The higher the value of pKi (lower value of Ki), the greater the inhibition of ALK5 activity.
Background: TR-FRET usually uses a lanthanide donor and a delayed reading to cut background.

Results on 18 compounds are retold here after patent US11590116B2 (THERAVANCE BIOPHARMA R&D IP, LLC, priority 2019, dated 2023).

For the compound `COc1[nH]nc(-c2cccc(C)n2)c1-c1ccc2ncc(N)cc2n1` [Compound 600, 6-(5-methoxy-3-(6-methylpyridin-2-yl)-1H-pyrazol-4-yl)-1,5-naphthyridin-3-amine], the IC50 in assay [1] is 25.1 to 158 nM. Also, in assay [2], the Ki was 0.0398 to 0.316 nM.

In the case of `Cc1cccc(-c2n[nH]cc2-c2ccc3ncc(N4CCN5CCCC5C4)cc3n2)n1` (stereo not drawn) [Compound 74, 7-(3,4,6,7,8,8a-hexahydro-1H-pyrrolo[1,2-a]pyrazin-2-yl)-2-[3-(6-methyl-2-pyridyl)-1H-pyrazol-4-yl]-1,5-naphthyridine], the IC50 in assay [1] is 25.1 to 158 nM. Further, the Ki in assay [2] was less than 0.0316 nM.

Turning to `CCNC(=O)C1CCN(CCNc2cnc3ccc(-c4nc[nH]c4-c4cccc(C)n4)cc3c2)CC1` [Compound 643, N-ethyl-1-[2-[[6-[5-(6-methyl-2-pyridyl)-1H-imidazol-4-yl]-3-quinolyl]amino]ethyl]piperidine-4-carboxamide], the IC50 in assay [1] was 25.1 to 158 nM. Further, the Ki in assay [2] is 0.398 to 3.16 nM.

Regarding `Cc1cccc(-c2n[nH]cc2-c2ccc3ncc(CCCN4CCN(C(C)C)CC4)cc3n2)n1` [Compound 615, 7-[3-(4-isopropylpiperazin-1-yl)propyl]-2-[3-(6-methyl-2-pyridyl)-1H-pyrazol-4-yl]-1,5-naphthyridine], the IC50 in assay [1] is 25.1 to 158 nM. In addition, the Ki in assay [2] was 0.0398 to 0.316 nM.

For `Cc1cccc(-c2n[nH]cc2-c2ccc3nccc(-c4cnn(CCN5CCOCC5)c4)c3n2)n1` [Compound 833, 4-[2-[4-[6-[3-(6-methyl-2-pyridyl)-1H-pyrazol-4-yl]-1,5-naphthyridin-4-yl]pyrazol-1-yl]ethyl]morpholine], the IC50 in assay [1] was 25.1 to 158 nM. Besides, the Ki in assay [2] was 0.0398 to 0.316 nM.

Consider `Cc1cccc(-c2[nH]cnc2-c2ccc3ncc(C(=O)O[C@H]4CCCNC4)cc3c2)n1` [Compound 878, (S)-piperidin-3-yl 6-(5-(6-methylpyridin-2-yl)-1H-imidazol-4-yl)quinoline-3-carboxylate], for which, in assay [1], the IC50 is 25.1 to 158 nM. In addition, in assay [2], the Ki is 0.0398 to 0.316 nM.

For `Cc1cccc(-c2nnn(C)c2-c2ccc3ncc(N4CCC(N(C)C)C4)cc3c2)n1` (racemic) [Compound 25, rac-(3S)-N,N-dimethyl-1-[6-[3-methyl-5-(6-methyl-2-pyridyl)triazol-4-yl]-3-quinolyl]pyrrolidin-3-amine], the IC50 in assay [1] is 25.1 to 158 nM. Moreover, the Ki in assay [2] is 0.0398 to 0.316 nM.

Regarding `Cc1cccc(-c2n[nH]cc2-c2ccc3ncc(-c4cn5c(n4)CN(C4CCNC4)CC5)cc3n2)n1` (stereo not drawn) [Compound 440, 2-[3-(6-methyl-2-pyridyl)-1H-pyrazol-4-yl]-7-(7-pyrrolidin-3-yl-6,8-dihydro-5H-imidazo[1,2-a]pyrazin-2-yl)-1,5-naphthyridine], the IC50 in assay [1] is 200 to 1260 nM. The Ki in assay [2] is 0.0398 to 0.316 nM.

`Cc1nc(-c2nc3ccccn3c2-c2ccc3ncc(NCCN4CCN(C(C)C)CC4)cc3n2)ccc1F` [Compound 290, 6-[2-(5-fluoro-6-methyl-2-pyridyl)imidazo[1,2-a]pyridin-3-yl]-N-[2-(4-isopropylpiperazin-1-yl)ethyl]-1,5-naphthyridin-3-amine]: the IC50 in assay [1] was 25.1 to 158 nM. Further, in assay [2], the Ki was 0.0398 to 0.316 nM.

For the compound `Cc1cccc(-c2nnn(Cc3ccccc3)c2-c2ccc3ncc(N4CCCNCC4)cc3c2)n1` [Compound 411, 6-[3-benzyl-5-(6-methyl-2-pyridyl)triazol-4-yl]-3-(1,4-diazepan-1-yl)quinoline], the IC50 in assay [1] was 25.1 to 158 nM. The Ki in assay [2] was 0.0398 to 0.316 nM.

Consider `Cc1cccc(-c2n[nH]cc2-c2ccc3ncc(N4CCn5nc(C6=CCNC6)nc5C4)cc3n2)n1` [Compound 362, 7-[2-(2,5-dihydro-1H-pyrrol-3-yl)-6,8-dihydro-5H-[1,2,4]triazolo[1,5-a]pyrazin-7-yl]-2-[3-(6-methyl-2-pyridyl)-1H-pyrazol-4-yl]-1,5-naphthyridine], for which the IC50 in assay [1] is 200 to 1260 nM. For the same compound, the Ki in assay [2] is 0.0398 to 0.316 nM.

For `Cc1cccc(-c2[nH]ncc2-c2ccc3ncc(C(=O)OCCC4CCNCC4)cc3c2)n1` [Compound 1255, 2-(4-piperidyl)ethyl 6-[5-(6-methyl-2-pyridyl)-1H-pyrazol-4-yl]quinoline-3-carboxylate], the IC50 in assay [1] was 25.1 to 158 nM. Also, the Ki in assay [2] was 0.0398 to 0.316 nM.

`Cc1cccc(-c2[nH]ncc2-c2ccc3ncc(C(=O)OCC4CNC4)cc3c2)n1` [Compound 790, azetidin-3-ylmethyl 6-(5-(6-methylpyridin-2-yl)-1H-pyrazol-4-yl)quinoline-3-carboxylate]: the IC50 in assay [1] was 25.1 to 158 nM. Further, the Ki in assay [2] is 0.0398 to 0.316 nM.

`Cc1cccc(-c2n[nH]cc2-c2ccc3ncc(Nc4ccc(N5CCN(C)CC5)cc4)cc3c2)n1` [Compound 664, N-(4-(4-methylpiperazin-1-yl)phenyl)-6-(3-(6-methylpyridin-2-yl)-1H-pyrazol-4-yl)quinolin-3-amine]: the IC50 in assay [1] is 25.1 to 158 nM. The Ki in assay [2] is 0.0398 to 0.316 nM.

As for `CNCCN1CCn2cc(-c3cnc4ccc(-c5c[nH]nc5-c5cccc(C)n5)nc4c3)nc2C1` [Compound 262, N-methyl-2-[2-[6-[3-(6-methyl-2-pyridyl)-1H-pyrazol-4-yl]-1,5-naphthyridin-3-yl]-6,8-dihydro-5H-imidazo[1,2-a]pyrazin-7-yl]ethanamine], in assay [1], the IC50 is 200 to 1260 nM. The Ki in assay [2] was 0.0398 to 0.316 nM.

As to `Cc1cccc(-c2n[nH]cc2-c2ccc3nccc(CCCN4CCOCC4)c3n2)n1` [Compound 812, 4-[3-[6-[3-(6-methyl-2-pyridyl)-1H-pyrazol-4-yl]-1,5-naphthyridin-4-yl]propyl]morpholine], the IC50 in assay [1] was 200 to 1260 nM. Further, in assay [2], the Ki was 0.398 to 3.16 nM.

With `Cc1cccc(-c2[nH]cnc2-c2ccc3ncc(C4=CCN(C(C)C)C4)cc3c2)n1` [Compound 319, 3-(1-isopropyl-2,5-dihydropyrrol-3-yl)-6-[5-(6-methyl-2-pyridyl)-1H-imidazol-4-yl]quinoline], the IC50 in assay [1] was 25.1 to 158 nM. Moreover, the Ki in assay [2] was less than 0.0316 nM.

Turning to `Cc1cccc(-c2[nH]cnc2-c2ccc3ncc(-c4cc(C(=O)O[C@@H]5CCNC5)ccn4)cc3c2)n1` [Compound 1087, [(3R)-pyrrolidin-3-yl] 2-[6-[5-(6-methyl-2-pyridyl)-1H-imidazol-4-yl]-3-quinolyl]pyridine-4-carboxylate], the IC50 in assay [1] is 25.1 to 158 nM. Further, the Ki in assay [2] was less than 0.0316 nM.
